Results published in BindingDB's records for patent US20250026748 (Repare Therapeutics, 2025).

What follows are molecules tested against DNA polymerase theta (Homo sapiens, UniProt O75417) (assay: Polθ ATPase Enzymatic Assay (0.5 nM Enzyme Concentration)).
Sequence of DNA polymerase theta (O75417 whole entry): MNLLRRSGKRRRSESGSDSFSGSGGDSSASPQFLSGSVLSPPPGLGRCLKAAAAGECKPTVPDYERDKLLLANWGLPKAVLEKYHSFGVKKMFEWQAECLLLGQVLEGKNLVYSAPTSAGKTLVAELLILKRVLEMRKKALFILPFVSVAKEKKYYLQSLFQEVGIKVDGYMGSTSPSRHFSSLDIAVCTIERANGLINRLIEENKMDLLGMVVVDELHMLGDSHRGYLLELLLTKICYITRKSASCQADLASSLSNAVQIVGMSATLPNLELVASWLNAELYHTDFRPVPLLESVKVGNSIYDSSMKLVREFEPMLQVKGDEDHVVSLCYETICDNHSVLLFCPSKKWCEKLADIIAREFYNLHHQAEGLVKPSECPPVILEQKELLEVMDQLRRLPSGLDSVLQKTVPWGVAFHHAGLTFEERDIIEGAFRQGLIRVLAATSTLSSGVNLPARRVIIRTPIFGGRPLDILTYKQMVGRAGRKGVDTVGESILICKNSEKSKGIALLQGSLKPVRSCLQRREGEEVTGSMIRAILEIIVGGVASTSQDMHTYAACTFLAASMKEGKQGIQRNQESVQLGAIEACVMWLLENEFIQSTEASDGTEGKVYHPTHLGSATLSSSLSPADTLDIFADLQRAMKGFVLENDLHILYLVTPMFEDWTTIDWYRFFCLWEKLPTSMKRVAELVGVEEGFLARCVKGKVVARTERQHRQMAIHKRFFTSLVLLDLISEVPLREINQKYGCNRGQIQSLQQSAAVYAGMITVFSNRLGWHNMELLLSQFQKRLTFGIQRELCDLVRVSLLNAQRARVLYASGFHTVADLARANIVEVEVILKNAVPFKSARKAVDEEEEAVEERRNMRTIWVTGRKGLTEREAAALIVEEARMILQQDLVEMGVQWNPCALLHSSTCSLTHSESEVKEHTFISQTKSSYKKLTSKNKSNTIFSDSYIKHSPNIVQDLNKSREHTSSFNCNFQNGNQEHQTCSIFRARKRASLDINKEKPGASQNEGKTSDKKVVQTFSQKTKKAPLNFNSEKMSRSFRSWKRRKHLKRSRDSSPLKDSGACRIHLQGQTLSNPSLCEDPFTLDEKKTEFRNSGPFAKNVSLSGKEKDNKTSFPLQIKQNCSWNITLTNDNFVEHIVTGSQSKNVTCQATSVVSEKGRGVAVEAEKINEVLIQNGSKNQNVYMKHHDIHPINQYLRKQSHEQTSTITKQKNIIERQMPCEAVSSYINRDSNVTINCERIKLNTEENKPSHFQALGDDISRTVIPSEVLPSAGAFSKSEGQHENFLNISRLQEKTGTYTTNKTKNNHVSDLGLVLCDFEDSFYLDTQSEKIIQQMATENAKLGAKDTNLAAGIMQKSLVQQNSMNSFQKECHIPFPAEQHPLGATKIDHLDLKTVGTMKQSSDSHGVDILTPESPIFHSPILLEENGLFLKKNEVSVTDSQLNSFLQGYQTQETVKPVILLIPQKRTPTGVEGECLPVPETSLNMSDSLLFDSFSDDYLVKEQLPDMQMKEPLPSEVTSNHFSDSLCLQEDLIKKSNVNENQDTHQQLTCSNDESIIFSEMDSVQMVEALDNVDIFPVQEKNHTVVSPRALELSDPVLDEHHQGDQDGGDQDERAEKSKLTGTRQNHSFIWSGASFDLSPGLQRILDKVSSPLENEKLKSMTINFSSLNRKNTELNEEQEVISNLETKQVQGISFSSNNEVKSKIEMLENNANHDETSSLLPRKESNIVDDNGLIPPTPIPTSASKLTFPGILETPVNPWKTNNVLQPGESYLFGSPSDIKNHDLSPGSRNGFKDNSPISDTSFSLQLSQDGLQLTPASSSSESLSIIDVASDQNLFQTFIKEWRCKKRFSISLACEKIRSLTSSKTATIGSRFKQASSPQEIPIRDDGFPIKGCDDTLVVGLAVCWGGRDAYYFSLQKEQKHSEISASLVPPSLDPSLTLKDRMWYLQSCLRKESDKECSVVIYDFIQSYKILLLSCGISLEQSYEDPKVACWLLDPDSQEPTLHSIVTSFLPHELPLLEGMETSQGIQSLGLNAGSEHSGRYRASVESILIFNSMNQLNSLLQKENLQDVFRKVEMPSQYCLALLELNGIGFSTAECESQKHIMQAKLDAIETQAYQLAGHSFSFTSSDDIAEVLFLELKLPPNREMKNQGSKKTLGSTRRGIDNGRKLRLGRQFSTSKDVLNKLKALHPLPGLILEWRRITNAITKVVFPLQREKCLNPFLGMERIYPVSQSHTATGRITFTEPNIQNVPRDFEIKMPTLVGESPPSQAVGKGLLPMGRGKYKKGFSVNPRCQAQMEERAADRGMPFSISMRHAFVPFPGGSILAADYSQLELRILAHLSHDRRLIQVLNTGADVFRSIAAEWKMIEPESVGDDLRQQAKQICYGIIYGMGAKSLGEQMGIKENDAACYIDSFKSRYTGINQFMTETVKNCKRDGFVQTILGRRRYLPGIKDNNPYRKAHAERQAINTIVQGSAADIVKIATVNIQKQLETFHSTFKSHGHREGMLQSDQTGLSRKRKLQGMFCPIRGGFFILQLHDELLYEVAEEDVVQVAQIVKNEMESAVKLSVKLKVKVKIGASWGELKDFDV
Procedure: Following pre-incubation with inhibitors, DNA (Fork C) at 20 nM and ATP at 100 μM are added to start the reaction. Enzymatic reaction proceeds at rt for 180 min ATP consumption is measured using the ADP-Glo assay from Promega.
An IC50 of 1.1 nM was found for `COc1cnc(Cl)cc1-c1cnccc1C(=O)Nc1ncc(C#CC2CC2)s1` [US20250026748, Compound 38] in this work. An IC50 of 0.37 nM was found for `COc1ccc(Cl)cc1-c1cnccc1C(=O)Nc1nnc(C#CC2CC2)s1` [US20250026748, Compound 57] in this work. An IC50 of 1.9 nM was found for `COc1ccc(Cl)cc1-c1cn(Cc2nccs2)c(=O)cc1C(=O)Nc1nnc(C#CC2CC2)s1` [US20250026748, Compound 63] in this work. An IC50 of 38 nM was found for `COc1cnc(C(F)F)cc1-c1nc(-c2ccn(C)n2)cnc1C(=O)Nc1nnc(C#CC2CC2)s1` [US20250026748, Compound 140] in this work. An IC50 of 0.38 nM was found for `COc1cnc(Cl)cc1-c1cc(-c2nnc(C)o2)ccc1C(=O)Nc1nnc(C#CC2CC2)s1` [US20250026748, Compound 305] in this work. An IC50 of 12 nM was found for `COc1ccc(C(F)(F)F)cc1-c1cn(C)c(=O)cc1C(=O)Nc1nnc(C#CC2CCOC2)s1` (configuration not stated) [US20250026748, Compound 340] in this work. An IC50 of 2.9 nM was found for `COc1cnc(C(F)F)cc1-c1cc(-c2ccn(C)n2)ncc1C(=O)Nc1nnc(C#Cc2cc(C)[nH]n2)s1` [US20250026748, Compound 370] in this work.
